What is called IC50 is the concentration at which inhibition is half-maximal.

Activity calls are given as the source filed them.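 The calls were made as follows: active = mean IC50 for reducing PEG3 promoter reporter signal at or below a set limit, with IC50 above the limit in both counter screens; inactive = the rest, including counter screen hits.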

For 17 compounds, IC50 results are on record in PubChem BioAssay AID624167 (Sanford-Burnham Center for Chemical Genomics, 2012).

Test in all cases: inhibition of PEG-3 promoter-driven reporter – cell-based, HeLa, luciferase, CREF/GAPDH counter-screen panel, dose response (AID 624167)
Experiment [1] has as its target PEG-3 (UniProt Q6IN02). Conditions: HeLa PEG-Prom luciferase reporter, overnight, CREF/GAPDH counter-screens, mean of runs.
Experiment [2] deals with PEG-3. The following applies: HeLa PEG-Prom luciferase reporter, overnight, CREF/GAPDH counter-screens. On the technique in general: A reporter such as luciferase makes a cellular process visible.
For a further experiment, the system named is Rat fibroblasts (CREF). Conditions: CREF/GAPDH counter-screens. In general terms: A counterscreen serves to expose hits that act by an unwanted route or on another target.
The mark [3] stands for this setting: run 1, dose range 1, individual replicate IC50 per panel.
[4] abbreviates: run 2, dose range 1, individual replicate IC50 per panel.

Chain of PEG-3 (UniProt Q6IN02) (Q6IN02 whole entry, looked up): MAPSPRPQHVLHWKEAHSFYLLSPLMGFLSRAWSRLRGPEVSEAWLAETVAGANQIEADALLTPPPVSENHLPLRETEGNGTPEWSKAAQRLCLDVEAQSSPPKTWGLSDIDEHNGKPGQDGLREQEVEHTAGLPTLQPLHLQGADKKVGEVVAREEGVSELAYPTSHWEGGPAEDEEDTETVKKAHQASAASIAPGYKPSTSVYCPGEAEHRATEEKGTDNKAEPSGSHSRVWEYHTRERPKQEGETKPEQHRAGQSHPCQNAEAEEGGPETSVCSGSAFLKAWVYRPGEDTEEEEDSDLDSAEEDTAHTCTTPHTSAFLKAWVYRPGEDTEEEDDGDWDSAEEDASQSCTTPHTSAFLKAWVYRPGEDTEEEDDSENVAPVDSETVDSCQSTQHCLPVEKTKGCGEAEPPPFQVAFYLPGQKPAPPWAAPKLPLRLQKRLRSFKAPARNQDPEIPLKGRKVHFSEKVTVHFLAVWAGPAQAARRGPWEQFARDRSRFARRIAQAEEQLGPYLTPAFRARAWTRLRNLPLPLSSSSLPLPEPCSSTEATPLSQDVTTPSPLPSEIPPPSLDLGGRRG

For the compound `Cc1cc(C)c2nc(NNC(=O)c3ccc(S(=O)(=O)N4CC(C)CC(C)C4)cc3)sc2c1` (configuration not stated), the IC50 at PEG-3 [1] is 5.17 µM; with PEG-3 [2] (setting [3]), 7.33 µM; with PEG-3 [2] (setting [4]) it was 3.01 µM; in the experiment with Rat fibroblasts (CREF) (mean of runs), 8650 nM; with Rat fibroblasts (CREF) (setting [3]) it was 13900 nM; in the experiment with Rat fibroblasts (CREF) (setting [4]), 3360 nM.
As to `Cc1cc(C2=NNC(=NC3CC3)SC2)c(C)n1-c1ccccc1F`, the concentration for half-maximal inhibition (IC50) is less than 0.2 µM at PEG-3 [1]; less than 0.2 µM in the experiment with PEG-3 [2] (setting [3]); less than 0.2 µM in the experiment on PEG-3 [2] (setting [4]); 3300 nM in the experiment with Rat fibroblasts (CREF) (mean of runs); 2720 nM with Rat fibroblasts (CREF) (setting [3]); 3890 nM in the experiment with Rat fibroblasts (CREF) (setting [4]).
On to `Cc1cnc(NC(=O)c2ccc3c(c2)OCCO3)s1`, for which, at PEG-3 [1], the IC50 entry is “inactive”. Moreover, the IC50 in the experiment on PEG-3 [2] (setting [3]) was 0.647 µM; in the experiment on PEG-3 [2] (setting [4]), greater than 100 µM; in the experiment on Rat fibroblasts (CREF) (mean of runs), 454 nM; in the experiment on Rat fibroblasts (CREF) (setting [3]), 378 nM; in the experiment on Rat fibroblasts (CREF) (setting [4]), 530 nM.
As for `Cc1ccc2nc(NC(=O)c3ccccn3)sc2c1`, the IC50 on PEG-3 [1] is 1.24 µM; in the experiment with PEG-3 [2] (setting [3]) it was 1.29 µM; in the experiment on PEG-3 [2] (setting [4]), 1.18 µM; in the experiment with Rat fibroblasts (CREF) (mean of runs), 830 nM; with Rat fibroblasts (CREF) (setting [3]) it was 564 nM; with Rat fibroblasts (CREF) (setting [4]) it was 1100 nM.
As to `CCOc1ccc(C(=O)O/N=C(\N)c2ccccn2)cc1`, the IC50 on PEG-3 [1] is 3.41 µM; in the experiment on PEG-3 [2] (setting [3]) it was 5.04 µM; in the experiment on PEG-3 [2] (setting [4]), 1.77 µM; in the experiment with Rat fibroblasts (CREF) (mean of runs) it was 2250 nM; in the experiment with Rat fibroblasts (CREF) (setting [3]), 2350 nM; with Rat fibroblasts (CREF) (setting [4]), 2150 nM.
`COc1ccc(C(=O)CN2C(=O)c3ccccc3S2(=O)=O)cc1`: the concentration for half-maximal inhibition (IC50) at PEG-3 [1] is 3.28 µM; in the experiment on PEG-3 [2] (setting [3]) it was 2.96 µM; in the experiment with PEG-3 [2] (setting [4]), 3.59 µM; with Rat fibroblasts (CREF) (mean of runs), 3150 nM; with Rat fibroblasts (CREF) (setting [3]), 3260 nM; in the experiment on Rat fibroblasts (CREF) (setting [4]), 3040 nM.
Take `CC1CCN(c2ccc(-c3cccs3)nn2)CC1`: the IC50 on PEG-3 [1] was 1.82 µM; with PEG-3 [2] (setting [3]) it was 2.16 µM; in the experiment on PEG-3 [2] (setting [4]), 1.49 µM; in the experiment on Rat fibroblasts (CREF) (mean of runs), 341 nM; in the experiment on Rat fibroblasts (CREF) (setting [3]), 316 nM; in the experiment with Rat fibroblasts (CREF) (setting [4]), 366 nM.
`O=[N+]([O-])c1ccc(-c2ccc(/C=N/Nc3nc(NCc4ccccc4)nc(N4CCOCC4)n3)o2)cc1`: the IC50 on PEG-3 [1] is 5.66 µM; with PEG-3 [2] (setting [3]), 6.13 µM; with PEG-3 [2] (setting [4]), 5.18 µM; in the experiment on Rat fibroblasts (CREF) (mean of runs), 8540 nM; with Rat fibroblasts (CREF) (setting [3]), 9400 nM; with Rat fibroblasts (CREF) (setting [4]), 7680 nM.
Take `CC(C)(C)C(=O)Nc1ccc(NC(=O)c2ccco2)nc1`: the IC50 on PEG-3 [1] is 2.58 µM; in the experiment with PEG-3 [2] (setting [3]) it was 4.91 µM; in the experiment on PEG-3 [2] (setting [4]) it was 0.246 µM; in the experiment on Rat fibroblasts (CREF) (mean of runs) it was 435 nM; with Rat fibroblasts (CREF) (setting [3]), 224 nM; in the experiment on Rat fibroblasts (CREF) (setting [4]), 646 nM.
In the case of `NC1=C(Br)C(=O)c2ncccc2C1=O`, the IC50 was 3.1 µM on PEG-3 [1]; 3.31 µM in the experiment on PEG-3 [2] (setting [3]); 2.9 µM with PEG-3 [2] (setting [4]); 2200 nM in the experiment with Rat fibroblasts (CREF) (mean of runs); 2190 nM in the experiment with Rat fibroblasts (CREF) (setting [3]); 2200 nM with Rat fibroblasts (CREF) (setting [4]).
As for `C(=NN1CCCCCC1)c1ccc2ccccc2n1`, the IC50 entry at PEG-3 [1] was “inactive”. Also, the IC50 in the experiment on PEG-3 [2] (setting [3]) was 3.59 µM; in the experiment with PEG-3 [2] (setting [4]), greater than 100 µM; in the experiment with Rat fibroblasts (CREF) (mean of runs), 2580 nM; with Rat fibroblasts (CREF) (setting [3]), 2120 nM; in the experiment with Rat fibroblasts (CREF) (setting [4]), 3040 nM.
As to `O=C(O)c1cccc(COc2ccc(CO)cc2Cl)c1`, the IC50 on PEG-3 [1] is 0.391 µM; with PEG-3 [2] (setting [3]), 0.202 µM; in the experiment with PEG-3 [2] (setting [4]) it was 0.581 µM; with Rat fibroblasts (CREF) (mean of runs), 8350 nM; in the experiment with Rat fibroblasts (CREF) (setting [3]), 8630 nM; with Rat fibroblasts (CREF) (setting [4]), 8080 nM.
For `CN(C)c1ccc(/C=C(\C#N)c2ccccn2)cc1`, the IC50 is 4.32 µM at PEG-3 [1]; 4.25 µM with PEG-3 [2] (setting [3]); 4.38 µM with PEG-3 [2] (setting [4]); 639 nM with Rat fibroblasts (CREF) (mean of runs); 531 nM with Rat fibroblasts (CREF) (setting [3]); 747 nM in the experiment on Rat fibroblasts (CREF) (setting [4]).
Turning to `COc1ccc(C(=O)O/N=C(\N)c2ccccn2)cc1`, the half-maximal inhibitory concentration (IC50) was 2.02 µM on PEG-3 [1]; 3.11 µM with PEG-3 [2] (setting [3]); 0.926 µM in the experiment on PEG-3 [2] (setting [4]); 1620 nM in the experiment with Rat fibroblasts (CREF) (mean of runs); 1320 nM in the experiment with Rat fibroblasts (CREF) (setting [3]); 1930 nM in the experiment with Rat fibroblasts (CREF) (setting [4]).
For `COc1cc(SC)ccc1C(=O)Nc1nc2ccccc2[nH]1`, the IC50 result on PEG-3 [1] was “inactive”. Further, the IC50 with PEG-3 [2] (setting [3]) is 0.377 µM; in the experiment on PEG-3 [2] (setting [4]), greater than 100 µM; in the experiment on Rat fibroblasts (CREF) (mean of runs), 296 nM; with Rat fibroblasts (CREF) (setting [3]), 305 nM; with Rat fibroblasts (CREF) (setting [4]) it was 288 nM.
Consider `Cc1csc(NC(=O)c2cn3ccccc3n2)n1`, for which the 50% inhibitory concentration (IC50) is 4.15 µM at PEG-3 [1]; 2.68 µM with PEG-3 [2] (setting [3]); 5.62 µM in the experiment with PEG-3 [2] (setting [4]); 1090 nM in the experiment on Rat fibroblasts (CREF) (mean of runs); 1110 nM with Rat fibroblasts (CREF) (setting [3]); 1070 nM with Rat fibroblasts (CREF) (setting [4]).
Regarding `N=c1n(CCN2CCCCC2)c2ccccc2n1CC(O)c1ccc(Cl)c(Cl)c1` (configuration not stated), the half-inhibitory concentration (IC50) at PEG-3 [1] was 9.46 µM; in the experiment on PEG-3 [2] (setting [3]), 10.1 µM; in the experiment on PEG-3 [2] (setting [4]), 8.8 µM; with Rat fibroblasts (CREF) (mean of runs), 14200 nM; in the experiment on Rat fibroblasts (CREF) (setting [3]) it was 13600 nM; in the experiment with Rat fibroblasts (CREF) (setting [4]) it was 14800 nM.
